Measurements published in patent US20060002932A1, “Methods and compositions for enhancement of immunity by in vivo depletion of immunosuppressive cell activity” (priority 2004, published 2006).
“Also recorded” adds a separate entry of the source.

Columns and labels:
[1] = system: CD4^+CD25^high regulatory T cells; experiment: MTT cytotoxicity assay on isolated regulatory T cells; format: cell-based, human
Description: […] The formazan crystals were solubilized by adding 100 μL isopropanol/0.1 M hydrochloric acid and incubating at 37° C. for 2 hours. The absorbance of the formazan product was measured on an enzyme-linked immunosorbent assay (ELISA) plate reader at 570 nm.
Interferon-γ and IL-4 ELISPOT analyses were performed using PBMC obtained prior to, during, and after vaccination. PBMC were cultured overnight in complete RPMI 1640 medium. CD4^+ and CD8^+ T cells were isolated from PBMC by negative depletion (Miltenyi). After blocking, 1×10^5 T cells and 1×10^4 RNA-transfected DC were added to each well of 96-well nitrocellulose plates (Multiscreen-IP, Millipore) precoated with 2 μg/ml Interferon-γ capture antibody (Endogen) or with IL-4 capture antibody (BD Biosciences Pharmingen). Plates were incubated for 20 hours at 37° C., and biotinylated Interferon-γ detection antibody (Endogen) or biotinylated IL-4 antibody (BD Biosciences Pharmingen) was added to each well. Cells were then incubated for an additional two hours at room temperature, then with streptavidin-alkaline phosphatase (1 μg/ml; Sigma) and plates were developed with substrate (Kirkegaard & Perry Laboratories). After washing, spots were counted using an automated ELISPOT reader (Carl Zeiss). CTL assays were performed by coculturing RNA-transfected DC with autologous PBMC. Cells were restimulated once and IL-2 (20 units/ml) was added after five days and every other day thereafter. After 12 days of culture, effector cells were harvested. Target cells were labeled with 100 μCi of Na2[^51CrO4] (NEN) in 200 μl of complete RPMI 1640 for one hour at 37° C. in 5% CO2 and ^51Cr-labeled target cells were incubated in complete RPMI 1640 medium with effector cells for five hours at 37° C. Then, 50 μl of supernatant was harvested, and release of ^51Cr was measured with a scintillation counter. For proliferation assays, purified CD3^+ T cells were seeded into round-bottomed microplates in the presence of mRNA-transfected DC. […] Incorporation of thymidine was determined using a liquid scintillation counter.

[2] = Clinical toxicity in cancer patients; format: in vivo, human
Description: All subjects received a total of three intradermal injections of total tumor RNA-transfected DC. The injections were given intradermally at biweekly intervals and consisted of 1×10^7 cells suspended in 200 μL 0.9% sodium chloride (Abbott Laboratories, Abbott Park, Ill.) at each vaccination cycle. Following treatment, subjects were evaluated for toxicity, immunological and clinical response to therapy. Follow-up visits occurred biweekly for three visits, monthly for one visit, then every 3 months or until the subject was removed from the study.
Having shown that regulatory T cell elimination is capable of enhancing T-cell responses in vitro, a clinical study was initiated to analyze the efficacy of this strategy to a) eliminate regulatory T cells and b) to enhance a vaccine-induced T-cell response in end-stage cancer patients. Seven patients with metastatic renal cell (RCC), and one subject with disseminated ovarian carcinoma (OVA) were treated in an institutional review board (IRB) and Food and Drug Administration (FDA)-approved pilot study. […] PBMCs were also obtained from a subject who received DAB389IL-2 only under separate informed consent.
Treatment of patients was performed following written informed consent as part of an Institutional Review Board- and Federal Drug Administration-approved protocol. Patients with histologically-confirmed metastatic RCC were eligible for this study. One patient with disseminated ovarian carcinoma was included and treated on a compassionate basis. All patients were required to have adequate hepatic, renal, and neurological function, a life expectancy of >6 months, and a Karnofsky performance status of >70%. Patients must have had recovered from all toxicities related to any prior therapy and have not received any chemotherapy, radiation therapy, or immunotherapy for at least 6 weeks prior to study entry. Excluded from the study were patients with CNS metastases, with a history of autoimmune disease, with serious intercurrent chronic or acute illnesses. Patients on immunosuppressive agents were also excluded. […] All subjects received 3 intradermal injections of tumor RNA-transfected DC. The injections were given intradermally at biweekly intervals and consisted of 1×10^7 cells suspended in 200 μL 0.9% sodium chloride at each vaccination. Following treatment, subjects were evaluated for clinical toxicity, immunological and clinical responses. Due to regulatory restrictions and, in some subjects, limited access to tumor tissue, no tumor biopsies were performed.
Having shown that Treg elimination is capable of enhancing T-cell responses in vitro, a clinical study was initiated to test the Treg depletion concept in a human vaccination setting. Eleven patients including 10 with metastatic RCC and one with disseminated ovarian carcinoma (OVA) were treated in an Institutional Review Board (IRB) and Food and Drug Administration (FDA)-approved study.

[3] = system: CD4^+ T-cell populations with increasing densities of CD25; experiment: 7-AAD staining of CD4+ T-cell populations; format: cell-based, human
[4] = 6-hour exposure, viability over 48 hours

denileukin diftitox [DAB389IL-2]
concentration giving complete depletion of CD4^+CD25^high cells [1, 4]: 5 nM | concentration giving efficient killing of CD4^+CD25^high cells [1, 4]: 0.5 nM | cell viability of CD4^+CD25^high regulatory T cells ([1]; 24 hours following exposure): significant reduction in cell viability | reduction in absolute neutrophil counts (ANC) ([2]; average, 5 of 6 evaluable subjects): 10% | decrease in absolute neutrophil counts (ANC) ([2]; one subject): 20% | ALT elevations ([2]; single i.v. dose 18 μg/kg): transient, grade II ALT elevations in one subject; also recorded: transient grade II serum alanine aminotransferase (ALT) elevations (n=1) | constitutional symptoms ([2]; single i.v. dose 18 μg/kg): Grade I constitutional symptoms in two subjects; also recorded: grade I constitutional symptoms such as low-grade fever and malaise (n=4) | serum rheumatoid factor ([2]; single i.v. dose 18 μg/kg): grade I elevation of serum rheumatoid factor (n=1) | 7-AAD staining of other CD4^+ T cells with lower or no CD25 expression [3]: only background levels of 7-AAD staining | concentration giving optimal killing of CD4^+/CD25^high Treg ([3]; 7-AAD staining): 5 nM
